Measurements taken from article PMC12587601 (Antimicrobial Agents and Chemotherapy, 2025).
Marks after values point to notes of the source that are not given here.

Columns and labels:
[1] = Population pharmacokinetic analysis of ritonavir plasma concentrations (CHAPAS-4 pharmacokinetic sub-study, week 6, NONMEM)
Experimental: The trial included children with HIV from Zambia, Uganda, and Zimbabwe, aged 3–15 years, weighing at least 14 kg (Table 1), receiving abacavir-, zidovudine-, or stavudine-containing NRTI backbone and failing on ART according to WHO criteria (confirmed viral load >1,000 copies/mL after adherence counseling or CD4 criteria for failure or clinical criteria for failure). A nested pharmacokinetic sub-study was conducted within the CHAPAS-4 trial. […] Written informed consent was given by parents/caregivers, and local and national ethics committees approved the main trial and nested pharmacokinetic sub-study.
The dose depended on the companion PI (Table 2). NRTI backbones were also dosed according to weight bands. Children were followed up for 96 weeks. Pharmacokinetic blood samples were collected after week 6 of study treatment. Samples were collected at pre-dose, 0.5 (only for those on TAF/FTC), 1, 2, 4, 6, 8, 12, and 24 hours post-dose, and plasma was stored at −80°C. On the day of pharmacokinetic blood sampling, study drugs were administered under direct observation, with food (breakfast with 5% fat, ~250 kCal). All non-ART co-medications were taken at least 2 hours after study drugs.
R v4.2.2 via RStudio (Posit Public Benefit Corporation) and Pirana v2.9.9 (Certara, Inc.) were utilized to visualize and process the data, and Perl Speaks NONMEM v5.2.6 (Department of Pharmacy, Uppsala University) was used for automation of the analysis processes ([17]).
We tested one- and two-compartment disposition models and several absorption models (sequential zero- and/or first-order, with lag time or transit compartments). Simple first-order elimination as well as first-pass and saturable elimination through a liver compartment were tested. We included between-subject variability (BSV) on disposition parameters and between-occasion variability (BOV) on absorption parameters, assuming a log-normal distribution. Combined additive and proportional error models to describe residual unexplained variability were evaluated. Samples with undetectable drug concentrations were treated as censored at the limit of detection (LOD), which was imputed as 30% of the LLOQ ([19]), and handled using a modified version of the M6 method by Beal ([20]). The undetectable (i.e., censored) values were imputed to half of the LOD value (LOD/2), and the additive error was inflated by LOD/2. If a series of undetectable values was present, the value closest to the peak concentration was retained, while all trailing values were excluded from the model fit but retained for simulation-based diagnostics.
(§1) Covariates were maintained if they reached statistical significance of P < 0.05 on forward addition and P < 0.01 on backward elimination. […] The performance of intermediate and final models was assessed both numerically and using goodness of fit plots, and by simulation-based diagnostics such as visual predictive checks (VPC) ([23]). Parameter precision was evaluated using the sampling importance resampling (SIR) procedure ([24]). The effect of covariates on the simulated area under the curve from 0 to 24 hours (AUC0–24 h) for all study arms was visualized using a forest plot based on 1,000 simulations accounting for parameter uncertainty ([25]).

[2] = Covariate effects forest plot of simulated ritonavir AUC0–24 h (1,000 simulations accounting for parameter uncertainty); design: species or system African children with HIV; conditions: reference a child of 26 kg receiving 100 mg of ritonavir in combination with darunavir
Experimental: as §1

[3] = design: method as in PMID 19210693; conditions: cross-over pharmacokinetic study; cited from earlier work

Compound: CC(C)c1nc(CN(C)C(=O)N[C@H](C(=O)N[C@@H](Cc2ccccc2)C[C@H](O)[C@H](Cc2ccccc2)NC(=O)OCc2cncs2)C(C)C)cs1 [ritonavir]
- Observed Cmax of ritonavir, median (interquartile range) ([1]; atazanavir/ritonavir once daily, weight band 14–19.9 kg, ATV/r 200/75 mg, 3 out of 12 children got 100 mg ritonavir instead of 75 mg): 2.68 (2.33–3.25)^a mg/L
- Observed Cmax of ritonavir, median (interquartile range) ([1]; darunavir/ritonavir once daily, weight band 20–24.9 kg, DRV/r 600/100 mg): 1.27 (1.10–1.52) mg/L
- Observed Cmax of ritonavir, median (interquartile range) ([1]; darunavir/ritonavir once daily, weight band ≥35 kg, DRV/r 800/100 mg): 0.81 (0.53–1.04) mg/L
- Between-occasion variability, Bioavailability ([1]; human, in vivo): 40.1 (35.2–46.0) %
- Between-occasion variability, First-order absorption rate constant ([1]; human, in vivo): 114 (90.0–141) %
- Between-occasion variability, Lag time ([1]; human, in vivo): 62.0 (54.5–70.2) %
- Between-occasion variability, Zero-order rate of absorption ([1]; human, in vivo): 52.5 (42.7–63.0) %
- Between-subject variability, Clearance ([1]; human, in vivo): 13.1 (10.2–15.8) %
- Extra variability for unobserved doses ([1]; human, in vivo): 2.14 (1.53–2.42) fold change
- First-order absorption rate constant, typical value (95% confidence interval) ([1]; human, in vivo): 1.16 (0.893–1.89) 1/h
- Lag time, typical value (95% confidence interval) ([1]; human, in vivo): 0.981 (0.934–1.06) h
- Zero-order absorption duration, typical value (95% confidence interval) ([1]; human, in vivo): 2.45 (2.05–2.80) h
- Central volume of distribution, typical value (95% confidence interval) ([1]; human, in vivo, po): 54.5 (48.9–60.4) L
- Clearance, typical value (95% confidence interval) ([1]; human, in vivo, po): 10.5 (9.22–11.9) L/h
- Cmax ([1]; human, in vivo, po): 1320 ng/mL
- Intercompartmental clearance, typical value (95% confidence interval) ([1]; human, in vivo, po): 1.19 (0.851–1.58) L/h
- Peripheral volume of distribution, typical value (95% confidence interval) ([1]; human, in vivo, po): 134 (38.8–330) L
- Cmax ([1]; human, in vivo, po, 100 mg, Observed Cmax of ritonavir, median (interquartile range)): 2760 ng/mL
- Model-based AUC0–24 h of ritonavir, median (interquartile range) ([1]; lopinavir/ritonavir twice daily, weight band 20–24.9 kg, daily dose LPV/r 400/100 mg): 10.3 (7.30–12.8) mg·h/L
- Observed Cmax of ritonavir, median (interquartile range) ([1]; lopinavir/ritonavir twice daily, weight band ≥35 kg, daily dose LPV/r 800/200 mg): 0.80 (0.47–1.42) mg/L
- Increase of ritonavir AUC0–24 h by atazanavir [2]: 99.0%
- Lowering of plasma AUC of ritonavir by darunavir [3]: 14%
